We go through two compounds from publication PMC12238850, “Molecular determinants for recognition of serotonylated chromatin” (Nucleic Acids Research, 2025).

Each structure is given as a SMILES string. Read-outs that look alike come from different tables or passages of the source.

The experiment deals with T1, Taf3-PHD (residues 857–924) (Mus musculus, UniProt Q5HZG4).
T1 construct: PHD finger of Taf3 (residues 857–924) in NMR buffer; GST (N, cleaved yes); made in house; host or cells: E. coli BL21(DE3), M9 minimal medium (13C/15N)
T1 sequence (Q5HZG4 857-924): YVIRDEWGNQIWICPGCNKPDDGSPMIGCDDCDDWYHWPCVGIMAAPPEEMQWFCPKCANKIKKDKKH
The experiment is described as follows: NMR titration line shape analysis (TITAN), wild-type Taf3-PHD. It is filed as binding. As for the experimental part:
The ^13C- and ^15N-labelled Taf3-PHD NMR samples were purified as described above, with minor differences. A single colony of freshly transformed BL21(DE3) E. coli was grown in a synthetic M9 minimal medium (6.0 g/l Na2HPO4·2H2O, 3.0 g/l KH2PO4, 0.5 g/l NaCl, 25 mg/l MgSO4, 290 μg/l CaCl2, 1 μg/l FeSO4·7H2O, 270 μg/l ZnCl2, and 5 mg/l thiamine) containing 2.0 g/l ^13C-glucose as the only carbon source and 0.5 g/l ^15NH4Cl as the sole nitrogen source. Protein expression, lysis, and loading to Glutathione Sepharose™ column were performed as described above. The GST-tag was removed through on-column thrombin digestion by loading excess thrombin (SERVA) in wash buffer followed by overnight digestion at 4°C. The cleaved PHD moiety with a […] N-terminal extension (Gly–Ser–His–Met–Ala–Met–Ala) remaining from the thrombin cleavage site was collected from the flow-through and further purified in a Mono Q™ 10/100 GL as before and subsequently loaded to a Superdex-75 HiLoad 16/600 gel filtration column in NMR buffer (20 mM KPi, pH 7.0, 150 mM KCl, 10 μM ZnCl2) (Supplementary Fig. S1).
All data were recorded at 298 K on a Bruker Avance III HD 900 MHz spectrometer equipped with a cryoprobe, unless noted otherwise. Sample for assignment verification contained 0.3 mM ^13C- and ^15N-labelled PHD finger of Taf3 (residues 857–924) in NMR buffer (20 mM KPi, pH 7.0, 150 mM KCl, 10 μM ZnCl2, 0.01% NaN3, 10% D2O) in a 5-mm NMR tube. Samples for peptide interaction studies contained 0.19 mM ^13C- and ^15N-labelled PHD in NMR buffer in 3-mm NMR tubes. Lyophilized peptides were dissolved in NMR buffer including 1 mM sodium 3-(trimethylsilyl)tetradeuteriopropanionate (TSP) into 20 mM stock solutions. Upon dilution to 1 mM, all peptide solutions were at pH 7.0 in NMR buffer. Peptide concentrations were determined by comparing the integral of the Thr methyl signal (from T3, T6, and T11, total nine protons) to that of TSP using a quantitative 1D experiment (recycle delay 60 s) recorded at a Bruker Avance III 600 MHz spectrometer. Saturated complexes with H3K4me1/H3K4me2/H3K4me3 peptides with and without H3Q5ser were made by adding peptide to a 0.7 mM final concentration (3.6 equiv.). […] Additional samples were prepared using 30%, 50%, 80%, and 160% equiv. of peptide. All spectra were recorded and processed using Bruker Topspin and analysed using NMR-FAM Sparky and Poky.
For the H3K4me2 complexes, the resonance of G879 was excluded due to overlap and that of K875 was included. Spectra were processed using NMRPipe using exponential line broadening of 10/15 Hz in the direct/indirect dimension of the free induction decay before Fourier transform. Data were fit against a 1:1 binding model that also optimizes the ligand concentration to compensate for concentration errors. Fitting assumed an HSQC experiment using 1.2 ms for the first zz-filter delays and an additional 0.6 ms evolution at the start and end of t1 that accommodated the echo/anti-echo gradient. The average koff value and standard error from a bootstrap analysis based on 100 replicas are reported. The 95% confidence limits were estimated using a grid search fixing koff allowing for an ∼3% increase in the final residuals as based on the F-statistic given the degrees of freedom. For each koff value, the KD for the H3K4me3 peptide was restrained to fall within 100 and 400 nM to enforce compatibility to previous reported affinity to avoid unrealistically high fitted KD values at higher koff values. Of note, the quality of the fit at the confidence limit edges is visibly worse than the best fit, particularly for the high koff side. For the H3K4me3Q5ser peptide, no restraint on KD was necessary. For the H3K4me2 peptides, the KD was restrained to 5 μM maximum. Without these upper bounds for KD, slightly wider confidence limits for koff are found.

For `C[C@H](N)C(=O)N[C@@H](CCCNC(=N)N)C(=O)N[C@H](C(=O)N[C@@H](CCCC[N+](C)(C)C)C(=O)N[C@@H](CCC(=O)NCCc1c[nH]c2ccc(O)cc12)C(=O)N[C@H](C(=O)N[C@@H](C)C(=O)N[C@@H](CCCNC(=N)N)C(=O)N[C@@H](CCCCN)C(=O)N[C@@H](CO)C(=O)N[C@H](C(=O)NCC(N)=O)[C@@H](C)O)[C@@H](C)O)[C@@H](C)O` [H3K4me3Q5ser], the koff is, setting by setting: (pH 7) 16.8 ± 0.5 s⁻¹; (pH 7, read-out: koff 95% confidence limits) 12 to 22 s⁻¹.
Consider `C[C@H](N)C(=O)N[C@@H](CCCNC(=N)N)C(=O)N[C@H](C(=O)N[C@@H](CCCC[N+](C)(C)C)C(=O)N[C@@H](CCC(N)=O)C(=O)N[C@H](C(=O)N[C@@H](C)C(=O)N[C@@H](CCCNC(=N)N)C(=O)N[C@@H](CCCCN)C(=O)N[C@@H](CO)C(=O)N[C@H](C(=O)NCC(N)=O)[C@@H](C)O)[C@@H](C)O)[C@@H](C)O` [H3K4me3], for which the dissociation rate constant (koff) reads like this: (NMR line shape fit (TITAN), 298 K, 20 mM KPi, pH 7.0, 150 mM KCl, 1:1 model, average ± standard error from bootstrap, 100 replicas, read-out: koff) 48.8 ± 1 s⁻¹; (NMR line shape fit (TITAN), 298 K, pH 7.0, grid search, read-out: koff 95% confidence limits) 42 to 56 s⁻¹.
